Like-named read-outs stand apart in the source and are kept apart here. Each block holds one compound with its values, some of them ahead of it.
Assays:
[1] = system: MOLM-14 cells; type: cell-based; details: for increase in IC50 (inhibition) in the presence of 50% human plasma: 50% human plasma vs 10% FBS
[2] = system: FLT3; type: cell-based
[3] = system: Ba/F3-FLT3/ITD-Luc cells; type: in vivo, BALB/c mice
[4] = system: HL-60 cells; assay: Antiproliferative effect of staurosporine on HL-60 cells in the presence of AGP; type: cell-based; details: until saturating concentrations of drug were used
[5] = Human AGP levels and tolerability in mice after intraperitoneal injection; type: in vivo; details: 0.3 g/kg i.p.

Compound: CCc1nc(C(N)=O)c(Nc2ccc(N3CCC(N4CCN(C)CC4)CC3)c(OC)c2)nc1NC1CCOCC1 [gilteritinib]
effect of plasma proteins on activity ([1]; 50% human plasma or 50 mg/dL AGP, 48 h MTT): minimally affected

increase in IC50 (inhibition) in the presence of 50% human plasma ([1]; 48 h MTT): greater than 100 fold
IC50 increase by bovine AGP ([1]; bovine AGP adjusted to human-comparable levels): ~5 fold
Compound: C[C@]12O[C@H](C[C@]1(O)CO)n1c3ccccc3c3c4c(c5c6ccccc6n2c5c31)CNC4=O [lestaurtinib]
IC50 in 50% human plasma compared with 10% FBS ([1]; 50% human plasma from healthy donors, 48 h): IC50s were no longer reached
activity across a range of AGP concentrations ([1]; AGP 31 µg/mL – 2 mg/mL, 48 h MTT): appreciable activity is seen only at AGP concentrations less than one tenth of physiologic human levels
FLT3 phosphorylation inhibition in the presence of human plasma ([2]; 10 nmol/L and 100 nmol/L TKI, 50% human plasma): no appreciable FLT3 TKI activity

Compound: CO[C@@H]1[C@H](N(C)C(=O)c2ccccc2)C[C@H]2O[C@]1(C)n1c3ccccc3c3c4c(c5c6ccccc6n2c5c31)C(=O)NC4 [midostaurin]
response of transplanted FLT3/ITD cells (bioluminescence day 9) ([3]; midostaurin alone, oral gavage 4 days): regression of the cells
response of transplanted FLT3/ITD cells (bioluminescence day 9) ([3]; midostaurin plus intraperitoneal human AGP): progression of the cells comparable with that seen in the control animals

Compound: CC#C[C@]1(O)CC[C@H]2[C@@H]3CCC4=CC(=O)CCC4=C3[C@@H](c3ccc(N(C)C)cc3)C[C@@]21C [mifepristone]
effect of mifepristone alone on cell growth ([1]; at concentrations of maximal effect, no TKI): no appreciable effect on cell growth
impact upon TTT-3002 dose–response curves in the absence of AGP ([1]; no AGP): had no impact
effect alone upon FLT3 autophosphorylation or downstream signaling ([2]; mifepristone alone): no effect
response of transplanted FLT3/ITD cells (bioluminescence day 9) ([3]; midostaurin plus human AGP plus oral mifepristone): regression of the transplanted cells comparable with those of the midostaurin alone–treated mice

increase in IC50 (inhibition) in the presence of 50% human plasma ([1]; 48 h MTT): 37 fold
Compound: CC(C)(C)c1cc(NC(=O)Nc2ccc(-c3cn4c(n3)sc3cc(OCCN5CCOCC5)ccc34)cc2)no1 [quizartinib]

increase in IC50 (inhibition) in the presence of 50% human plasma ([1]; 48 h MTT): greater than 100 fold
Compound: CNC(=O)c1cc(Oc2ccc(NC(=O)Nc3ccc(Cl)c(C(F)(F)F)c3)cc2)ccn1 [sorafenib]

Compound: CN[C@@H]1C[C@H]2O[C@@](C)([C@@H]1OC)n1c3ccccc3c3c4c(c5c6ccccc6n2c5c31)C(=O)NC4 [staurosporine]
antiproliferative activity in the presence of AGP [4]: no appreciable activity

Compound: human AGP: alpha-1-acid glycoprotein purified from human plasma (Sigma), injected i.p. into mice
terminal half-life [5]: approximately 17 hours
